Marks after values point to notes of the source that are not given here.
Tests used:
[1] = Sweetness potency of derivative products compared to sucrose at iso-sweetness levels (Example 1); settings: in vivo
Description: These rebaudioside A derivative products were characterized as having an intense sweetening potency. […] Thus, the rebaudioside A derivative products are suitable for use as sweeteners for sweetenable compositions.

[2] = Sweetness intensity of a water sample of derivative product compared with a water sample of sucrose (Example 4); assay type: in vivo; settings: in water; amount of sample by weight: 1 (II) 3.6 %, 2 (IV) 1.1 %, 3 (III) 9.7 %, 4 (V) 6 %
Procedure: The sweetness intensity of the foregoing rebaudioside A derivative products was analyzed by comparing the sweetness intensity of a water sample having a particular amount of sucrose with a second water sample having an identical amount of a rebaudioside A derivative product.

[3] = Quality of sweetness: sensory attributes scored on a 15-point unstructured line scale; assay type: in vivo; design: key to Stale Flavor / Metallic Flavor / Mouth Numbing / Mouthburn / Stale Aftertaste / Metallic Aftertaste / Overall Aroma / Sweet Aromatic Aroma / Stale Aroma: scores on a 15-point unstructured line scale
Procedure: The quality of sweetness of the rebaudioside A derivative products 1 (II), 2 (IV), 3 (III), and 4 (V) also was evaluated and compared to that of rebaudioside A, rebaudioside B, rebaudioside F, and sucrose at room temperature. For each attribute, the sweeteners received a score based on a 15-point unstructured line scale. […] A multiple comparison test, Fisher's LSD 5%, aided in the comparative analysis of the scores.

[4] = mean score, 15-point line scale, two replications, room temperature
[5] = mean score, 15-point line scale, two replications, room temperature, more than 50% of responses zero
[6] = mean score, 15-point line scale, two replications, room temperature, same superscript letter = not significantly different (95%)

For `CC1=CC23CCC4C(C)(C(=O)O)CCCC4(C)C2CCC1(OC1OC(CO)C(O)C(OC2OC(CO)C(O)C(O)C2O)C1OC1OC(CO)C(O)C(O)C1O)C3` [Derivative Product 4 (V), 13-[(2-O-β-D-glucopyranosyl-3-O-β-D-glucopyranosyl-β-D-glucopyranosyl)oxy]kaur-15-en-18-oic acid], the taste quality [1] was “sweet clean taste similar to sugar”, the “Sweetness Intensity of Derivative Product (as compared to equivalent amount of sucrose)” value [2] was 120 and the “characteristics which were not significantly different from sucrose (number)” value ([3]; Fisher's LSD 5%, 95% confidence level) was 8. For the same compound, the “Metallic Aftertaste” value [3, 4] was 0.63, the “Metallic Flavor” value [3, 4] was 0.87 and the “Mouth Numbing” value [3, 4] was 0.90. The Mouthburn [3, 4] was 1.23, the “Stale Flavor” value [3, 4] was 0.77 and the “Overall Aroma” value [3, 5] was 0.19. The “Stale Aftertaste” value [3, 5] was 0.47, the “Stale Aroma” value [3, 5] was 0.09 and the “Sweet Aromatic Aroma” value [3, 5] was 0.00. The Astringency [3, 6] was 3.01^ab, the Bitterness [3, 6] was 2.08^cde and the “Bitterness Aftertaste” value [3, 6] was 1.38^bcd. For the same compound, the “Black Licorice Aftertaste” value [3, 6] was 1.25^a, the “Black Licorice Flavor” value [3, 6] was 1.40^bc and the Cooling [3, 6] was 0.70^ab. The “Overall Aftertaste” value [3, 6] was 5.24^b, the “Overall Flavor” value [3, 6] was 6.44^b and the “Sweet Aromatic Aftertaste” value [3, 6] was 0.83^ab. The “Sweet Aromatic Flavor” value [3, 6] was 0.75^ab, the Sweetness [3, 6] was 6.04^b and the “Sweetness Aftertaste” value [3, 6] was 4.85^b.

Reference: patent US9115166B2, “Rebaudioside A derivative products and methods for making” (The Coca-Cola Company, priority 2008, dated 2015)
